Laboratory results from patent US8742117B2, “Oxime derivatives” (Cadila Healthcare Limited, priority 2008, dated 2014).

Each compound was assayed against T1, human GPR 119 receptor (Homo sapiens, UniProt Q8TDV5) (assay: cAMP assay in stable cell line expressing recombinant human GPR 119 receptor). Details: 1 μM; intracellular cAMP, recombinant human GPR 119 cell line.
T1 construct: expressed in transfected cells
T1 sequence (Q8TDV5 1-335): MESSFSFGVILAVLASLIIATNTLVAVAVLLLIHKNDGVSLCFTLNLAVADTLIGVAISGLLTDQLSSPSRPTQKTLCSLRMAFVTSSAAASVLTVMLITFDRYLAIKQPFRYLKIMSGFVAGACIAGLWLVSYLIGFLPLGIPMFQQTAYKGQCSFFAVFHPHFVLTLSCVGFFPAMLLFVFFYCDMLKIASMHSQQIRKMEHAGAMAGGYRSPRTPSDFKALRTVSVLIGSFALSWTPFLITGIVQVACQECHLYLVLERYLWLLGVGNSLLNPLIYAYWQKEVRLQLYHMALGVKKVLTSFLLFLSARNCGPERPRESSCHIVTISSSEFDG
Assay type: cell-based
Text: A stable cell line expressing recombinant human GPR 119 receptor was established and used to investigate the efficacy of the compounds of the invention based on the intracellular levels of cyclic AMP (cAMP) using commercially available cAMP kits. Compounds of the invention produced a concentration dependent increase in cAMP level and EC50 values of representative compounds were provided in table 1 and table 2 respectively.

Row | Compound | % activity at 1 μM [%]
1 | CC(=NOc1ncnc(N2CCC(c3nc(C(C)C)no3)CC2)c1[N+](=O)[O-])c1cc2ccccc2o1 [Example 1, 1-(benzofuran-2-yl)ethanone O-6-(4-(3-isopropyl-1,2,4-oxadiazol-5-yl)piperidin-1-yl)-5-nitropyrimidin-4-yl oxime] | 62.46
2 | CC(=NOc1ncnc(N2CCC(c3nc(C(C)C)no3)CC2)c1[N+](=O)[O-])c1ccc(C)cc1 [Example 2, 1-p-tolylethanone O-6-(4-(3-isopropyl-1,2,4-oxadiazol-5-yl)piperidin-1-yl)-5-nitropyrimidin-4-yl oxime] | 37.75
3 | CC(=NOc1ncnc(N2CCC(c3nc(C(C)C)no3)CC2)c1C)c1ccc(S(C)(=O)=O)cc1 [Example 3, 1-(4-(methylsulfonyl)phenyl)ethanone O-6-(4-(3-isopropyl-1,2,4-oxadiazol-5-yl)piperidin-1-yl)-5-methylpyrimidin-4-yl oxime] | 73.40
4 | CC(=NOc1ncnc(N2CCC(c3nc(C(C)C)no3)CC2)c1C)c1cccnc1 [Example 12, 1-(pyridin-3-yl)ethanone O-6-(4-(3-isopropyl-1,2,4-oxadiazol-5-yl)piperidin-1-yl)-5-methylpyrimidin-4-yl oxime] | 20.32
5 | CC(=NOc1ncnc(N2CCC(c3nc(C(C)C)no3)CC2)c1[N+](=O)[O-])c1ccc(OC(F)(F)F)cc1 [Example 13, 1-(4-(trifluoromethoxy)phenyl)ethanone O-6-(4-(3-isopropyl-1,2,4-oxadiazol-5-yl)piperidin-1-yl)-5-nitropyrimidin-4-yl oxime] | 93.76
6 | CC(=NOc1ncnc(N2CCC(c3nc(C(C)C)no3)CC2)c1C)c1ccc2c(c1)CCCC2 [Example 17, 1-(5,6,7,8-tetrahydronaphthalen-2-yl)ethanone O-6-(4-(3-isopropyl-1,2,4-oxadiazol-5-yl)piperidin-1-yl)-5-methylpyrimidin-4-yl oxime] | 29.24
7 | CC(=NOc1ncnc(N2CCC(c3nc(C(C)C)no3)CC2)c1[N+](=O)[O-])c1ccc2c(c1)CCCC2 [Example 18, 1-(5,6,7,8-tetrahydronaphthalen-2-yl)ethanone O-6-(4-(3-isopropyl-1,2,4-oxadiazol-5-yl)piperidin-1-yl)-5-nitropyrimidin-4-yl oxime] | 31.37
8 | CC(=NOc1ncnc(N2CCC(c3nc(C(C)C)no3)CC2)c1C)c1cc2ccccc2o1 [Example 19, 1-(benzofuran-2-yl)ethanone O-6-(4-(3-isopropyl-1,2,4-oxadiazol-5-yl)piperidin-1-yl)-5-methylpyrimidin-4-yl oxime] | 40.68
9 | Cc1c(ON=C(c2ccccc2)c2ccccc2)ncnc1N1CCC(c2nc(C(C)C)no2)CC1 [Example 20, Benzophenone O-6-(4-(3-isopropyl-1,2,4-oxadiazol-5-yl)piperidin-1-yl)-5-methylpyrimidin-4-yl oxime] | 24.55
10 | CC(C)c1noc(C2CCN(c3ncnc(ON=C(c4ccccc4)c4ccccc4)c3[N+](=O)[O-])CC2)n1 [Example 21, Benzophenone O-6-(4-(3-isopropyl-1,2,4-oxadiazol-5-yl)piperidin-1-yl)-5-nitropyrimidin-4-yl oxime] | 19.43
11 | CC(=NOc1ncnc(N2CCC(c3nc(C(C)C)no3)CC2)c1C)c1ccc(-c2ccccc2)cc1 [Example 24, 1-(biphenyl-4-yl)ethanone O-6-(4-(3-isopropyl-1,2,4-oxadiazol-5-yl)piperidin-1-yl)-5-methylpyrimidin-4-yl oxime] | 8.7
12 | CC(=NOc1ncnc(N2CCC(c3nc(C(C)C)no3)CC2)c1[N+](=O)[O-])c1ccc(-c2ccccc2)cc1 [Example 25, 1-(biphenyl-4-yl)ethanone O-6-(4-(3-isopropyl-1,2,4-oxadiazol-5-yl)piperidin-1-yl)-5-nitropyrimidin-4-yl oxime] | 32.0

Same assay, conditions: intracellular cAMP, recombinant human GPR 119 cell line

Row | Compound | EC50 [nM]
13 | CC(=NOc1ncnc(N2CCC(c3nc(C(C)C)no3)CC2)c1[N+](=O)[O-])c1cc2ccccc2o1 [Example 1, 1-(benzofuran-2-yl)ethanone O-6-(4-(3-isopropyl-1,2,4-oxadiazol-5-yl)piperidin-1-yl)-5-nitropyrimidin-4-yl oxime] | 802
14 | CC(=NOc1ncnc(N2CCC(c3nc(C(C)C)no3)CC2)c1[N+](=O)[O-])c1ccc(OC(F)(F)F)cc1 [Example 13, 1-(4-(trifluoromethoxy)phenyl)ethanone O-6-(4-(3-isopropyl-1,2,4-oxadiazol-5-yl)piperidin-1-yl)-5-nitropyrimidin-4-yl oxime] | 242
